Data as given in US20260008995A1, “ISOLATED […], COMPOSITIONS COMPRISING THE SAME, AND USES THEREOF” (MOON (GUANGZHOU) BIOTECH CO., LTD., priority 2023, published 2026).

Columns and labels:
[1] = tested on: Strain MNH04863; assay: antibiotic susceptibility testing, disk diffusion test; type: cell-based, Christensenella sp.; details: for MNH04863 Inhibition Zone Diameter: disk diffusion, strain MNH04863; for susceptibility of strain MNH04863 to the antibiotic: result in words
Protocol: (§1) Antibiotic susceptibility testing was performed separately for each strain using the disk diffusion test.

[2] = tested on: Strain MNH05119; assay: as above; type: cell-based, Christensenella sp.; details: for MNH05119 Inhibition Zone Diameter: disk diffusion, strain MNH05119; for susceptibility of strain MNH05119 to the antibiotic: result in words
Protocol: as §1

[3] = tested on: Strain MNH06163; assay: as above; type: cell-based, Christensenella sp.; details: for MNH06163 Inhibition Zone Diameter: disk diffusion, strain MNH06163; for susceptibility of strain MNH06163 to the antibiotic: result in words
Protocol: as §1

[4] = tested on: type II diabetic mice (db/db); assay: combination of MNH05119 and metformin in type II diabetic model mice (Example 7); type: in vivo, BKS-Leprem2Cd479/Gpt (db/db) mice; details: 28 days, MNH05119 2×10^10 CFU/mouse twice daily, metformin 250 mg/kg once daily, oral gavage
Description: (1) Experimental animals: The experimental mice were BKS-Leprem2Cd479/Gpt (db/db) mice, aged 5-6 weeks, 32 mice in total, purchased from GuangDong GemPharmatech Co., Ltd.
The activated strain was inoculated in MM01 liquid medium and cultured anaerobically to obtain a sufficient amount of cultures. These cultures were centrifuged, concentrated and resuspended in a solvent to obtain the subjects with purity and viable bacteria counts (1×10^11 CFU/mL) that satisfy the requirements of the animal experiments.
3) Negative control (HFD-control group): PBS-Cys was used as a negative control.
5) Experimental procedure: 5 to 6-week-old of 32 BKS-Leprem2Cd479/Gpt (db/db) male
mice were randomly grouped according to their body weights after quarantine, with 8 mice/group divided into 4 groups. […] All data were expressed as mean±SD, graphed and statistically analyzed using GraphPad Prism 8.0.2 software. […]
6) Oral Glucose Tolerance Test (OGTT): On the 27th day (Day27) of administration, OGTT was determined after 12 h of fasting (e.g., fasting from 20:30:00 μm to 08:30:00 μm the following day). The fasting body weights of the mice were measured and glucose was administered by gavage at a dose of 2 g/kg (glucose g/mouse fasting body weight kg). Fasting blood glucose as well as blood glucose values at 15 min, 30 min, 60 min, 90 min and 120 min post-glucose administration were measured.

Row | Compound | MNH04863 Inhibition Zone Diameter [1] [mm] | susceptibility of strain MNH04863 to the antibiotic [1] | MNH05119 Inhibition Zone Diameter [2] [mm] | susceptibility of strain MNH05119 to the antibiotic [2] | MNH06163 Inhibition Zone Diameter [3] [mm] | susceptibility of strain MNH06163 to the antibiotic [3] | reduction of fasting blood glucose value compared to negative control group [4] [%]
1 | O=C(O)c1cn(C2CC2)c2cc(N3CCNCC3)c(F)cc2c1=O [Ciprofloxacin (CFX), Ciprofloxacin] | 0 | resistance | 0 | resistance | 0 | resistance | 
2 | CC1(C)S[C@@H]2[C@H](NC(=O)[C@H](N)c3ccccc3)C(=O)N2[C@H]1C(=O)O [Ampicillin (AMP), Ampicillin] | 0 | resistance | 0 | resistance | 0 | resistance | 
3 | O=C(N[C@H](CO)[C@H](O)c1ccc([N+](=O)[O-])cc1)C(Cl)Cl [Chloramphenicol (CLM), Chloramphenicol] | 38.88 | sensitive | 32.49 | sensitive | 21.59 | sensitive | 
4 | Compound sulfamethoxazole [sulfamethoxazole (T/S)] | 0 | resistance | 0 | resistance | 0 | resistance | 
5 | CC[C@H]1OC(=O)[C@H](C)[C@@H](O[C@H]2C[C@@](C)(OC)[C@@H](O)[C@H](C)O2)[C@H](C)[C@@H](O[C@@H]2O[C@H](C)C[C@H](N(C)C)[C@H]2O)[C@](C)(O)C[C@@H](C)C(=O)[C@H](C)[C@@H](O)[C@]1(C)O [Erythromycin (ERM), Erythromycin] | 16.82 | sensitive | 31.65 | sensitive | 8.72 | sensitive | 
6 | CN(C)C(=N)N=C(N)N [metformin] |  |  |  |  |  |  | 50
7 | Penicillin [Penicillin (PEN)] | 43.06 | sensitive | 0 | resistance | 0 | resistance | 
8 | CO/N=C(\C(=O)N[C@@H]1C(=O)N2C(C(=O)O)=C(CSc3nc(=O)c(=O)[nH]n3C)CS[C@H]12)c1csc(N)n1 [Ceftriaxone (CTR), Ceftriaxone] | 37.32 | sensitive | 0 | resistance | 0 | resistance | 
9 | CN(C)[C@@H]1C(O)=C(C(N)=O)C(=O)[C@@]2(O)C(O)=C3C(=O)c4c(O)cccc4[C@@](C)(O)[C@H]3C[C@@H]12 [Tetracycline (TET), Tetracycline] | 46.11 |  | 24.12 |  | 18.14 |  | 
10 | CCC[C@@H]1C[C@@H](C(=O)N[C@@H]([C@H]2O[C@H](SC)[C@H](O)[C@@H](O)[C@H]2O)[C@@H](C)O)N(C)C1 [Lincomycin (LIN), Lincomycin] | 29.86 | sensitive | 0 | resistance | 0 | resistance | 
11 | Gentamycin [Gentamycin (GEN)] | 0 | resistance | 0 | resistance | 0 | resistance | 
